Results from ChEMBL document CHEMBL1201862, “PubChem BioAssay data set” (2004).
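How tested: cells in 96-well plates exposed to compound for 48 hours at five concentrations. GI50 = concentration required for 50% inhibition of growth.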 Active and inactive are the calls of the source. Cut-off read from the data, not from the text of the source: active = GI50 up to about 1.1 µM and inactive = higher. Starred links: 1 amine or outer side, 2 acyl side, 3 side chain; linkers in the order of their positions; H or OH if unused. Non-standard residues stand in square brackets, D forms with d. Residues, ends and D or L forms follow the SMILES beside them. ξ: configuration not given here. Ile(3ξ) = CCC(C)[C@H](N)C(=O)O; X35 = C=CCC(O[*:1])C(=O)[*:2]; NMeV = CN[C@H](C(=O)O)C(C)C; NMeA = CN[C@@H](C)C(=O)O; βAla = NCCC(=O)O

Tests used:
Test in all cases: NCI-60 cell line screen, 48 h
HOP-62 = test system: HOP-62
HCC 2998 = test system: HCC 2998
TK-10 = test system: TK-10
HCT-116 = test system: HCT-116
SF-268 = test system: SF-268
MOLT-4 = test system: MOLT-4
CAKI-1 = test system: CAKI-1
Malme-3M = test system: Malme-3M
SNB-75 = test system: SNB-75
RPMI-8226 = test system: RPMI-8226
SK-MEL-28 = test system: SK-MEL-28
SK-MEL-2 = test system: SK-MEL-2
NCI-H23 = test system: NCI-H23
HL-60 = test system: HL-60
U-251 = test system: U-251
SF-539 = test system: SF-539
SK-OV-3 = test system: SK-OV-3

Measured: GI50

CS(=O)(=O)Sc1ccc(Cl)cc1
inactive: HOP-62 2.83 µM | HCC 2998 11.2 µM | TK-10 14 µM | HCT-116 5.7 µM | SF-268 1.63 µM | MOLT-4 3.53 µM | CAKI-1 10.7 µM | Malme-3M 11.6 µM | SNB-75 3.21 µM | RPMI-8226 10.9 µM | SK-MEL-28 11.5 µM | SK-MEL-2 6.84 µM | NCI-H23 13.8 µM | HL-60 4.42 µM | U-251 2.84 µM | SF-539 2.55 µM | SK-OV-3 23.5 µM

C=CCC1OC(=O)CCNC(=O)[C@H](C)N(C)C(=O)[C@H](C(C)C)N(C)C(=O)[C@H](C(C)CC)NC(=O)[C@@H]2CCCN2C1=O (stereo partly drawn) (cyclo([Ile(3ξ)][NMeV][NMeA][βAla][X35]P))
inactive: HOP-62 4.09 µM | HCC 2998 5.31 µM | TK-10 > 38.3 µM | HCT-116 3.94 µM | SF-268 4.12 µM | MOLT-4 3.57 µM | CAKI-1 8.93 µM | Malme-3M 3.28 µM | SNB-75 > 21.1 µM | RPMI-8226 4.91 µM | SK-MEL-28 33.8 µM | SK-MEL-2 3.13 µM | NCI-H23 26.7 µM | HL-60 3.39 µM | U-251 > 53 µM | SF-539 10.1 µM | SK-OV-3 99.1 µM

Cc1ccc(NC(=O)C(=O)CC(=O)c2c(C)[n+]([O-])c3ccccc3[n+]2[O-])cc1
inactive: HOP-62 > 100 µM | HCC 2998 44 µM | TK-10 91 µM | HCT-116 18.6 µM | SF-268 35.8 µM | MOLT-4 23.4 µM | CAKI-1 79.1 µM | Malme-3M 27.9 µM | SNB-75 23.6 µM | RPMI-8226 24.4 µM | SK-MEL-28 46.6 µM | SK-MEL-2 21 µM | NCI-H23 20.3 µM | HL-60 19.3 µM | U-251 31 µM | SF-539 29.2 µM | SK-OV-3 73.1 µM

O=C1[C@H]2ON(c3ccccc3)C(c3cccc([N+](=O)[O-])c3)[C@H]2C(=O)N1c1ccc(Cc2ccc(N3C(=O)[C@@H]4ON(c5ccccc5)C(c5cccc([N+](=O)[O-])c5)[C@@H]4C3=O)cc2)cc1 (stereo partly drawn)
inactive: HOP-62 > 100 µM | HCC 2998 > 100 µM | TK-10 > 100 µM | HCT-116 > 100 µM | SF-268 > 100 µM | MOLT-4 > 100 µM | CAKI-1 38.6 µM | Malme-3M 75 µM | SNB-75 > 100 µM | RPMI-8226 > 100 µM | SK-MEL-28 > 100 µM | SK-MEL-2 > 100 µM | NCI-H23 > 100 µM | HL-60 > 100 µM | U-251 > 100 µM | SF-539 > 100 µM | SK-OV-3 > 100 µM

COc1cc(/C=C/C(=O)c2sc(NNC(C)=O)nc2C)ccc1O
inactive: HOP-62 > 100 µM | HCC 2998 > 100 µM | TK-10 > 100 µM | SF-268 > 100 µM | MOLT-4 > 100 µM | CAKI-1 > 100 µM | Malme-3M > 100 µM | SNB-75 > 100 µM | RPMI-8226 > 100 µM | SK-MEL-28 > 100 µM | SK-MEL-2 > 100 µM | NCI-H23 > 100 µM | HL-60 > 100 µM | U-251 > 100 µM | SF-539 > 100 µM | SK-OV-3 > 100 µM

CCCN(CCC)c1c([N+](=O)[O-])cc(C(=O)N(CC)CC)cc1[N+](=O)[O-]
inactive: HOP-62 29.4 µM | HCC 2998 37.1 µM | TK-10 29 µM | HCT-116 13.6 µM | SF-268 17.6 µM | MOLT-4 16.4 µM | CAKI-1 25.1 µM | Malme-3M 16.3 µM | SNB-75 21.3 µM | RPMI-8226 11.9 µM | SK-MEL-28 22.9 µM | SK-MEL-2 16.7 µM | NCI-H23 7.55 µM | HL-60 14 µM | U-251 15.5 µM | SF-539 24.7 µM | SK-OV-3 25.5 µM

Nc1nc(Cl)c2ncn(CCCC(c3ccccc3)P(=O)(O)O)c2n1 (stereo not drawn)
inactive: HOP-62 > 100 µM | HCC 2998 > 100 µM | TK-10 > 100 µM | HCT-116 > 100 µM | SF-268 > 100 µM | CAKI-1 > 100 µM | Malme-3M > 100 µM | SNB-75 > 100 µM | RPMI-8226 > 100 µM | SK-MEL-28 > 100 µM | SK-MEL-2 > 100 µM | NCI-H23 > 100 µM | HL-60 > 100 µM | U-251 > 100 µM | SF-539 > 100 µM | SK-OV-3 > 100 µM

O=c1c(Sc2c(O)c3ccccc3c3ccccc3c2=O)c(O)c2ccccc2c2ccccc12
inactive: HOP-62 29.5 µM | HCC 2998 32.7 µM | TK-10 > 100 µM | SF-268 20 µM | MOLT-4 16.8 µM | CAKI-1 80.4 µM | Malme-3M 25.2 µM | SNB-75 > 100 µM | RPMI-8226 19.8 µM | SK-MEL-28 33 µM | SK-MEL-2 18.9 µM | NCI-H23 23.7 µM | HL-60 15.6 µM | U-251 18.7 µM | SF-539 42.3 µM | SK-OV-3 > 100 µM
